Assay: molar heat capacity at constant pressure
Conditions: 101.33 kPa, Crystal, Vacuum adiabatic calorimetry

O=C([O-])[O-].[Pb+2] [lead(II) carbonate]
Conditions	molar heat capacity at constant pressure [J/K/mol]
4.385 K	0.052
4.419 K	0.0555
4.738 K	0.06322
4.754 K	0.06377
5 K	0.0763
5.09 K	0.08024
5.104 K	0.08019
5.342 K	0.09726
5.363 K	0.09954
5.585 K	0.1145
5.612 K	0.1163
5.83 K	0.1316
5.868 K	0.1342
6.078 K	0.1519
6.126 K	0.1554
6.413 K	0.1893
6.471 K	0.1928
6.838 K	0.2414
6.899 K	0.256
7.267 K	0.3073
7.34 K	0.322
7.699 K	0.3863
7.78 K	0.4013
8.134 K	0.4809
8.222 K	0.5005
8.575 K	0.5882
8.668 K	0.606
9.015 K	0.7106
9.108 K	0.7478
9.458 K	0.85
9.558 K	0.8902
9.903 K	1.01
10 K	1.048
10.01 K	1.055
10.57 K	1.286
10.68 K	1.33
11.46 K	1.695
11.57 K	1.751
12.36 K	2.155
12.47 K	2.216
13.27 K	2.654
13.38 K	2.746
14.19 K	3.244
14.31 K	3.33
15 K	3.776
15.13 K	3.866
15.25 K	3.962
16.07 K	4.511
16.2 K	4.595
17.03 K	5.162
17.16 K	5.276
17.99 K	5.902
18.12 K	6.01
18.95 K	6.635
19.09 K	6.747
19.93 K	7.37
20 K	7.42
20.06 K	7.466
21.41 K	8.521
21.54 K	8.639
23.39 K	10.08
23.53 K	10.19
25 K	11.38
25.4 K	11.68
27.41 K	13.32
29.43 K	14.96
30 K	15.38
31.45 K	16.55
33.46 K	18.13
35 K	19.37
35.48 K	19.73
36.7 K	20.7
37.49 K	21.32
38.5 K	22.12
40 K	23.28
40.51 K	23.65
42.52 K	25.25
44.53 K	26.66
45 K	27.01
46.54 K	28.07
48.55 K	29.49
50 K	30.59
50.55 K	30.94
52.55 K	32.41
54.56 K	33.8
55 K	33.98
56.56 K	35.05
58.57 K	36.13
60 K	37.15
60.52 K	37.48
62.4 K	38.61
64.2 K	39.65
65 K	40.1
65.95 K	40.66
67.63 K	41.57
69.27 K	42.35
70 K	42.8
71.59 K	43.59
74.62 K	45.09
75 K	45.29
77.67 K	46.51
79.9 K	47.55
80 K	47.58
80.72 K	47.85
83.04 K	48.9
85 K	49.68
86.1 K	50.14
89.18 K	51.33
90 K	51.61
92.25 K	52.45
95 K	53.38
95.34 K	53.5
98.43 K	54.49
100 K	55
101.53 K	55.5
104.63 K	56.35
107.75 K	57.22
110 K	57.87
110.87 K	58.11
114 K	58.89
117.14 K	59.63
120 K	60.33
120.28 K	60.41
123.43 K	61.11
126.59 K	61.8
129.77 K	62.5
130 K	62.53
132.94 K	63.15
136.13 K	63.79
139.31 K	64.43
140 K	64.55
142.51 K	65.03
145.71 K	65.61
148.92 K	66.19
150 K	66.42
152.13 K	66.84
155.35 K	67.35
158.57 K	67.88
160 K	68.14
161.81 K	68.4
165.05 K	68.98
168.31 K	69.49
170 K	69.74
171.58 K	70.05
174.85 K	70.51
178.14 K	70.92
180 K	71.28
181.44 K	71.38
184.74 K	71.87
188.04 K	72.41
190 K	72.72
191.34 K	72.91
194.61 K	73.4
197.88 K	73.88
200 K	74.07
201.13 K	74.3
204.38 K	74.74
207.61 K	75.11
210 K	75.37
210.84 K	75.52
214.06 K	75.82
217.25 K	76.33
220 K	76.66
220.45 K	76.69
223.63 K	77.07
226.8 K	77.37

— the NIST ThermoML archive (doi:10.1016/j.jct.2011.10.014)
